In assay [1] the target is T1, SK4 K+ channel (Homo sapiens, UniProt O15554). It is filed as cell-based.
Assay [2] addresses T1, SK4 K+ channel. The assay is described as follows: whole-cell patch clamp. The format is cell-based. To be noted: read-out: % inhibition at 0.5 μM.

What is called EC50 is the concentration that produces a half-maximal response. The inhibition is the change of the read-out against control, counted positive when it falls.

T1 sequence (O15554 whole entry): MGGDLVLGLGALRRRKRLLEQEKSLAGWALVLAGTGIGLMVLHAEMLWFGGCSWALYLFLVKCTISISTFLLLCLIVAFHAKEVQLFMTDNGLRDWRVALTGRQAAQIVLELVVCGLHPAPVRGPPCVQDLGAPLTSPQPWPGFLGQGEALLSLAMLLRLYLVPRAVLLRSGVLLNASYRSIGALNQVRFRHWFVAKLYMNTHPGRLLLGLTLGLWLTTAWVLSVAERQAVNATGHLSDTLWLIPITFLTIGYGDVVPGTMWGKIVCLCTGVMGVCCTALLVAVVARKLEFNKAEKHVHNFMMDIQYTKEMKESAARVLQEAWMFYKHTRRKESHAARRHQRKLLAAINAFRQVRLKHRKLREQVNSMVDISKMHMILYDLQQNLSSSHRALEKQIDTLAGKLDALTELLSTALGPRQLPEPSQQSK

For the compound `CCCCCCCC(=O)OC[C@H](COP(=O)(O)O[C@@H]1[C@H](O)[C@H](O)[C@@H](OP(=O)(O)O)[C@H](OP(=O)(O)O)[C@H]1O)OC(=O)CCCCCCC` [diC8-PIP2], the EC50 at SK4 K+ channel [1] is 154 nM.
In the case of `Clc1ccccc1C(c1ccccc1)(c1ccccc1)n1cccn1` [Tram-34], the inhibition at 0.5 µM on SK4 K+ channel [2] worked out at 86%.

(Values after paper PMC9407317 (Proceedings of the National Academy of Sciences of the …, 2022).)
